Test system: Morphine Induced Loss of Righting Reflex
Experiment: Antagonism of Morphine Induced Loss of Righting Reflex
Assay type: in vivo, male Charles River rats
Details: Rattus norvegicus, im; rats; morphine base 75 mg/kg subcutaneously; antagonist intramuscularly 40 minutes after the morphine; measured at 20 minute intervals for 2 hours; read-out: ED50 (dose for 50 percent reversal of the loss of righting reflex)
Experimental: Groups of three male Charles River rats (160 to 200 g.) were dosed subcutaneously with morphine base at 75 mg/kg. The degree of narcosis was measured at 15 and 30 minutes after injection. Criterion was loss of righting reflex. Antagonists were administered 40 minutes after the morphine. The degree of antagonism was measured at 20 minute intervals for 2 hours. Nalorphine at 2 mg/kg. served as a positive control while one group of morphinized rats in each determination received no antagonist and served as negative controls. Compounds were dissolved in water or suspended in Tween-80 and water and were administered intramuscularly. Each dose of the antagonist was tested in a minimum of three experiments. At least three doses of each antagonist was used to determine the ED50. For each experiment the degree of reversal, by the antagonist, of the loss of righting reflex induced by morphine was calculated in the following manner. The total number of periods of loss of righting reflex in the experimental group was divided by the total number of periods of loss of righting reflex in the control group. This number was converted to percent and subtracted from 100 to give percent reversal of loss of righting reflex. The dose for which a 50 percent reversal of the loss of righting reflex was observed is the ED50.

Row | Compound | ED50
1 | CN(C)C(c1cccc(O)c1)[C@@H]1CCCC[C@@H]1OCc1ccccc1 (single isomer, unassigned) [(l)-α-dimethylamino-α-(cis-2-benzyloxycyclohexyl)-m-cresol] | 0.35 mg/kg
2 | CN(C)C(c1cccc(O)c1)[C@@H]1CCCC[C@@H]1OCc1ccccc1 (stereo partly drawn) [(dl)-α-dimethylamino-α-(cis-2-benzyloxycyclohexyl)-m-cresol] | 0.95 mg/kg
3 | CCO[C@@H]1CCCC[C@@H]1C(c1cccc(O)c1)N(C)C (stereo partly drawn) [(dl)-α-dimethylamino-α-(cis-2-ethoxycyclohexyl)-m-cresol] | 2 mg/kg
4 | C=CCN1CC[C@]23c4c5ccc(O)c4O[C@H]2[C@@H](O)C=C[C@H]3[C@H]1C5 [Nalorphine, reference compound] | 1 mg/kg
